# In ChEMBL document CHEMBL1909046, “DrugMatrix in vitro pharmacology data”:
# System: not listed separately
# Assay: DRUGMATRIX: ATPase, Na+/K+ enzyme inhibition (substrate: ATP)
# Assay type: tissue-based, Sus scrofa, Heart
# Conditions: Not Active = under 50% inhibition at 10 µM
Structure (SMILES),IC50,Ki
CCO [ALCOHOL],Not Active,Not Active
C[C@H](C(=O)O)c1ccc2oc(-c3ccc(F)cc3)nc2c1 [FLUNOXAPROFEN],Not Active,Not Active
O=C(O)c1ccccc1 [BENZOIC ACID],Not Active,Not Active
CN(CCOc1ccc(C[C@H](Nc2ccccc2C(=O)c2ccccc2)C(=O)O)cc1)c1ccccn1,Not Active,Not Active
O=c1[nH]cnc2c1ncn2[C@H]1CC[C@@H](CO)O1 [DIDANOSINE],Not Active,Not Active
CC(C)(c1ccc(O)cc1)c1ccc(O)cc1 [BISPHENOL A],Not Active,Not Active
ClC1=C(Cl)[C@]2(Cl)[C@@H]3[C@@H]4C[C@@H]([C@H]5O[C@@H]45)[C@@H]3[C@@]1(Cl)C2(Cl)Cl [DIELDRIN],Not Active,Not Active
c1ccc(Cn2ccnc2)cc1,Not Active,Not Active
C[C@]12CC[C@@H](O)C[C@@H]1CC[C@@H]1[C@@H]2CC[C@]2(C)C(=O)CC[C@@H]12 [ANDROSTERONE],Not Active,Not Active
CC12CCC(CC1)C(C)(C)O2 [EUCALYPTOL],Not Active,Not Active

# System: not listed separately
# Assay: DRUGMATRIX: Atrial Natriuretic Factor (ANF) radioligand binding (ligand: [125I] ANF (rat))
# Assay type: cell membranes, Cavia porcellus, Dunkin-Hartley, Adrenal gland, Membrane
# Conditions: Not Active = under 50% inhibition at 10 µM
Structure (SMILES),IC50,Ki
CCO [ALCOHOL],Not Active,Not Active
C[C@H](C(=O)O)c1ccc2oc(-c3ccc(F)cc3)nc2c1 [FLUNOXAPROFEN],Not Active,Not Active
O=C(O)c1ccccc1 [BENZOIC ACID],Not Active,Not Active
CN(CCOc1ccc(C[C@H](Nc2ccccc2C(=O)c2ccccc2)C(=O)O)cc1)c1ccccn1,Not Active,Not Active
O=c1[nH]cnc2c1ncn2[C@H]1CC[C@@H](CO)O1 [DIDANOSINE],Not Active,Not Active
CC(C)(c1ccc(O)cc1)c1ccc(O)cc1 [BISPHENOL A],Not Active,Not Active
ClC1=C(Cl)[C@]2(Cl)[C@@H]3[C@@H]4C[C@@H]([C@H]5O[C@@H]45)[C@@H]3[C@@]1(Cl)C2(Cl)Cl [DIELDRIN],Not Active,Not Active
c1ccc(Cn2ccnc2)cc1,Not Active,Not Active
C[C@]12CC[C@@H](O)C[C@@H]1CC[C@@H]1[C@@H]2CC[C@]2(C)C(=O)CC[C@@H]12 [ANDROSTERONE],Not Active,Not Active
CC12CCC(CC1)C(C)(C)O2 [EUCALYPTOL],Not Active,Not Active

# System: not listed separately
# Assay: DRUGMATRIX: Calcium Channel Type L, Phenylalkylamine radioligand binding (ligand: [3H] (-)-Desmethoxyverapamil (D-888))
# Assay type: cell membranes, Rattus norvegicus, Wistar, Brain, Membrane
# Conditions: Not Active = under 50% inhibition at 10 µM
Structure (SMILES),IC50,Ki
CCO [ALCOHOL],Not Active,Not Active
C[C@H](C(=O)O)c1ccc2oc(-c3ccc(F)cc3)nc2c1 [FLUNOXAPROFEN],Not Active,Not Active
O=C(O)c1ccccc1 [BENZOIC ACID],Not Active,Not Active
CN(CCOc1ccc(C[C@H](Nc2ccccc2C(=O)c2ccccc2)C(=O)O)cc1)c1ccccn1,Not Active,Not Active
O=c1[nH]cnc2c1ncn2[C@H]1CC[C@@H](CO)O1 [DIDANOSINE],Not Active,Not Active
CC(C)(c1ccc(O)cc1)c1ccc(O)cc1 [BISPHENOL A],Not Active,Not Active
ClC1=C(Cl)[C@]2(Cl)[C@@H]3[C@@H]4C[C@@H]([C@H]5O[C@@H]45)[C@@H]3[C@@]1(Cl)C2(Cl)Cl [DIELDRIN],Not Active,Not Active
c1ccc(Cn2ccnc2)cc1,Not Active,Not Active
C[C@]12CC[C@@H](O)C[C@@H]1CC[C@@H]1[C@@H]2CC[C@]2(C)C(=O)CC[C@@H]12 [ANDROSTERONE],Not Active,Not Active
CC12CCC(CC1)C(C)(C)O2 [EUCALYPTOL],Not Active,Not Active

# Molecular target: T1, C-X-C chemokine receptor type 2 (Homo sapiens, UniProt P25025); also: in other assays of this panel Not Active means under 50% inhibition at 10 µM
# T1 sequence (P25025 whole entry): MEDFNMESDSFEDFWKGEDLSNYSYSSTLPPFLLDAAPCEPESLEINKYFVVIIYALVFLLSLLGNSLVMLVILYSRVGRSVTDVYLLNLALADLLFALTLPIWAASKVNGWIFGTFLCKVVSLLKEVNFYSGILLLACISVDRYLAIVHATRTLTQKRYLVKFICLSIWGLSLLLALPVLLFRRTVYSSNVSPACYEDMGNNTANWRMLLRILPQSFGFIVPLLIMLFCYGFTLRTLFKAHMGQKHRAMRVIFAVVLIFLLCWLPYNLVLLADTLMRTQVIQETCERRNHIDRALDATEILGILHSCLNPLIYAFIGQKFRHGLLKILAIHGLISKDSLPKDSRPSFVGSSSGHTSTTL
# Assay type: cell membranes, CHO-K1, Membrane
# Conditions: cho-k1
row,Structure (SMILES),IC50
1,CCO [ALCOHOL],Not Active
2,C[C@H](C(=O)O)c1ccc2oc(-c3ccc(F)cc3)nc2c1 [FLUNOXAPROFEN],Not Active
3,O=C(O)c1ccccc1 [BENZOIC ACID],Not Active
4,CN(CCOc1ccc(C[C@H](Nc2ccccc2C(=O)c2ccccc2)C(=O)O)cc1)c1ccccn1,Not Active
5,O=c1[nH]cnc2c1ncn2[C@H]1CC[C@@H](CO)O1 [DIDANOSINE],Not Active
6,CC(C)(c1ccc(O)cc1)c1ccc(O)cc1 [BISPHENOL A],Not Active
7,ClC1=C(Cl)[C@]2(Cl)[C@@H]3[C@@H]4C[C@@H]([C@H]5O[C@@H]45)[C@@H]3[C@@]1(Cl)C2(Cl)Cl [DIELDRIN],Not Active
8,c1ccc(Cn2ccnc2)cc1,Not Active
9,C[C@]12CC[C@@H](O)C[C@@H]1CC[C@@H]1[C@@H]2CC[C@]2(C)C(=O)CC[C@@H]12 [ANDROSTERONE],Not Active
10,CC12CCC(CC1)C(C)(C)O2 [EUCALYPTOL],Not Active

# System: not listed separately
# Assay: DRUGMATRIX: Glutamate, NMDA, Agonism radioligand binding (ligand: [3H] CGP-39653)
# Assay type: cell membranes, Rattus norvegicus, Wistar, Cerebral cortex, Membrane
# Conditions: Not Active = under 50% inhibition at 10 µM
Structure (SMILES),IC50,Ki
CCO [ALCOHOL],Not Active,Not Active
C[C@H](C(=O)O)c1ccc2oc(-c3ccc(F)cc3)nc2c1 [FLUNOXAPROFEN],Not Active,Not Active
O=C(O)c1ccccc1 [BENZOIC ACID],Not Active,Not Active
CN(CCOc1ccc(C[C@H](Nc2ccccc2C(=O)c2ccccc2)C(=O)O)cc1)c1ccccn1,Not Active,Not Active
O=c1[nH]cnc2c1ncn2[C@H]1CC[C@@H](CO)O1 [DIDANOSINE],Not Active,Not Active
CC(C)(c1ccc(O)cc1)c1ccc(O)cc1 [BISPHENOL A],Not Active,Not Active
ClC1=C(Cl)[C@]2(Cl)[C@@H]3[C@@H]4C[C@@H]([C@H]5O[C@@H]45)[C@@H]3[C@@]1(Cl)C2(Cl)Cl [DIELDRIN],Not Active,Not Active
c1ccc(Cn2ccnc2)cc1,Not Active,Not Active
C[C@]12CC[C@@H](O)C[C@@H]1CC[C@@H]1[C@@H]2CC[C@]2(C)C(=O)CC[C@@H]12 [ANDROSTERONE],Not Active,Not Active
CC12CCC(CC1)C(C)(C)O2 [EUCALYPTOL],Not Active,Not Active

# Molecular target: T2, Nitric oxide synthase, inducible (Mus musculus, UniProt P29477);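 also: inhibition of iNOS enzyme activity measured with L-arginine as substrate; in other assays of this panel Not Active means under 50% inhibition at 10 µM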
# T2 sequence (P29477 whole entry): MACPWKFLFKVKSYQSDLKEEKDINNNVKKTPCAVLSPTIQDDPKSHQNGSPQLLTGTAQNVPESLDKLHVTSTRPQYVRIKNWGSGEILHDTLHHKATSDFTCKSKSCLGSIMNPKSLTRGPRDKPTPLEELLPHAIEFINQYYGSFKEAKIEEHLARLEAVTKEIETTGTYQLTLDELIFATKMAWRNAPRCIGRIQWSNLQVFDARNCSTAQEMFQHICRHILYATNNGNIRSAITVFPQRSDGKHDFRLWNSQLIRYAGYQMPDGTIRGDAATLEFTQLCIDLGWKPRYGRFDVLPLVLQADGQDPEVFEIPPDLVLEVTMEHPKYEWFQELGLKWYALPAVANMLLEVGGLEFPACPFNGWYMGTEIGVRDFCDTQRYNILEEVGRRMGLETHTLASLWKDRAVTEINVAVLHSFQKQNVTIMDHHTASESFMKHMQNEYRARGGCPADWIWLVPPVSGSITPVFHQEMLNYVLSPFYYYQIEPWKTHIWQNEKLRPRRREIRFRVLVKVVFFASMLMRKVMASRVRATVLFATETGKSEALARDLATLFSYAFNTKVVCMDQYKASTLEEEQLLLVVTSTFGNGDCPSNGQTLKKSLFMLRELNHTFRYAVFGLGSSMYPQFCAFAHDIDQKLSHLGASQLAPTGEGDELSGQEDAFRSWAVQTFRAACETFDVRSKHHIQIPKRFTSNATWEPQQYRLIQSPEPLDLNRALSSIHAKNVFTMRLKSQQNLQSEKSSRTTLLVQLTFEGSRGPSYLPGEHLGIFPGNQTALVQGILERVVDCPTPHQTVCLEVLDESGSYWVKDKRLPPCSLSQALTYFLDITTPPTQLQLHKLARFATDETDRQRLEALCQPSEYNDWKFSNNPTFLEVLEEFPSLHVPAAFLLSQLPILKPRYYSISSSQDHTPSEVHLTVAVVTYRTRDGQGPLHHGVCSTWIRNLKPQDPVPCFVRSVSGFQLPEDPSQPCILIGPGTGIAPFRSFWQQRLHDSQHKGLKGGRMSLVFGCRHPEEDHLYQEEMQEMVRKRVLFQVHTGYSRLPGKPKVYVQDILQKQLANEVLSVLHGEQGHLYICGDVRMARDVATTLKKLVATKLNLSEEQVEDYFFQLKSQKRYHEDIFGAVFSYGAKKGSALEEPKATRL
# Set-up: species or system Escherichia coli
# Conditions: not given
row,Structure (SMILES),IC50
1,CCO [ALCOHOL],Not Active
2,C[C@H](C(=O)O)c1ccc2oc(-c3ccc(F)cc3)nc2c1 [FLUNOXAPROFEN],Not Active
3,O=C(O)c1ccccc1 [BENZOIC ACID],Not Active
4,CN(CCOc1ccc(C[C@H](Nc2ccccc2C(=O)c2ccccc2)C(=O)O)cc1)c1ccccn1,Not Active
5,O=c1[nH]cnc2c1ncn2[C@H]1CC[C@@H](CO)O1 [DIDANOSINE],Not Active
6,CC(C)(c1ccc(O)cc1)c1ccc(O)cc1 [BISPHENOL A],Not Active
7,ClC1=C(Cl)[C@]2(Cl)[C@@H]3[C@@H]4C[C@@H]([C@H]5O[C@@H]45)[C@@H]3[C@@]1(Cl)C2(Cl)Cl [DIELDRIN],Not Active
8,c1ccc(Cn2ccnc2)cc1,Not Active
9,C[C@]12CC[C@@H](O)C[C@@H]1CC[C@@H]1[C@@H]2CC[C@]2(C)C(=O)CC[C@@H]12 [ANDROSTERONE],Not Active
10,CC12CCC(CC1)C(C)(C)O2 [EUCALYPTOL],Not Active

# Molecular target: Delta-type opioid receptor (Homo sapiens, UniProt P41143); also: in other assays of this panel Not Active means under 50% inhibition at 10 µM
# Assay type: cell membranes, HEK293, Membrane
# Conditions: hek293
# Chain of Delta-type opioid receptor (P41143 whole entry): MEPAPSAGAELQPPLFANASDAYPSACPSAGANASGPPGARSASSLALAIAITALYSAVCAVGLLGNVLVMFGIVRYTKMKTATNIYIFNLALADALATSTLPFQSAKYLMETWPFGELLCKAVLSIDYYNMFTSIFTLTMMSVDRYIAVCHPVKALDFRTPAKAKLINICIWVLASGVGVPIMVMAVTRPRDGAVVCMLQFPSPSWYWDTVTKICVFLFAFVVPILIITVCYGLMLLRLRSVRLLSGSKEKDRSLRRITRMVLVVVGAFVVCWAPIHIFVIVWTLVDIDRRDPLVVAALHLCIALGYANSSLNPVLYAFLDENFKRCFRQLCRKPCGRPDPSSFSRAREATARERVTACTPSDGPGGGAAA
row,Structure (SMILES),IC50
1,CCO [ALCOHOL],Not Active
2,C[C@H](C(=O)O)c1ccc2oc(-c3ccc(F)cc3)nc2c1 [FLUNOXAPROFEN],Not Active
3,O=C(O)c1ccccc1 [BENZOIC ACID],Not Active
4,O=c1[nH]cnc2c1ncn2[C@H]1CC[C@@H](CO)O1 [DIDANOSINE],Not Active
5,CC(C)(c1ccc(O)cc1)c1ccc(O)cc1 [BISPHENOL A],Not Active
6,ClC1=C(Cl)[C@]2(Cl)[C@@H]3[C@@H]4C[C@@H]([C@H]5O[C@@H]45)[C@@H]3[C@@]1(Cl)C2(Cl)Cl [DIELDRIN],Not Active
7,c1ccc(Cn2ccnc2)cc1,Not Active
8,C[C@]12CC[C@@H](O)C[C@@H]1CC[C@@H]1[C@@H]2CC[C@]2(C)C(=O)CC[C@@H]12 [ANDROSTERONE],Not Active
9,CC12CCC(CC1)C(C)(C)O2 [EUCALYPTOL],Not Active

# Same assay, conditions: read-out: IC50
row,Structure (SMILES),IC50
1,CN(CCOc1ccc(C[C@H](Nc2ccccc2C(=O)c2ccccc2)C(=O)O)cc1)c1ccccn1,3.21 µM

# Same assay, conditions: read-out: Ki
row,Structure (SMILES),Ki
1,CN(CCOc1ccc(C[C@H](Nc2ccccc2C(=O)c2ccccc2)C(=O)O)cc1)c1ccccn1,1.13 µM
